The values that follow are results of earlier work, collected in patent publication US20100135908A1, “Delivery devices for modulating inflammation” (Searete LLC, a limited liability corporation of the state …, priority 2008, published 2010).

For data set [1], the system named is proteasome. The following applies: cultured breast cancer cells; disulfiram bound to copper.
For data set [2], the system named is Src family kinase.
For data set [3] the following is noted: single agent, 400 mg infused over one hour.
For data set [4] the following is noted: mice.
Data set [5] concerns Src family kinases (Src, Lck, Yes, Fyn). The following applies: at nanomolar concentrations.

For `CCN(CC)C(=S)SSC(=S)N(CC)CC` [disulfiram, 1-(diethylthiocarbamoyldisulfanyl)-N,N-diethyl-methanethioamide], the proteasomal activity result in data set [1] was “inhibits proteasomal activity”.
For the compound `CCN(CC)CCCC(C)Nc1ccnc2cc(Cl)ccc12` (centres unmarked) [chloroquine], the “inhibition of CpG-induced Src family kinase activation or its dependent cellular responses” value in data set [2] is listed as “does not inhibit”.
For `CCN(CC)CCCC(C)Nc1ccnc2cc(Cl)ccc12.O=P(O)(O)O.O=P(O)(O)O` (centres unmarked) [chloroquine phosphate, 7-chloro-4-[[4-(diethylamino)-1-methylbutyl]amino]quinoline phosphate (1:2)], the “complications of intravenous infusion” value in data set [3] was “without complication”.
Regarding `Cl.Cl.Nc1ccccc1Oc1ccc2c(N)nsc2c1` [Example M62812, 3-amino-6-(2-aminophenoxy)-1,2-benzisothiazole dihydrochloride], the “prevention of lethal septic shock” value in data set [4] is given as “prevents lethal septic shock”.
Consider `Cc1nc(Nc2ncc(C(=O)Nc3c(C)cccc3Cl)s2)cc(N2CCN(CCO)CC2)n1.O` [dasatinib, N-(2-chloro-6-methylphenyl)-2-[[6-[4-(2-hydroxyethyl)-1-piperazinyl]-2-methyl-4-pyrimidinyl]amino]-5-thiazolecarboxamide, monohydrate], for which, in data set [5], the “inhibition of Src family kinases (Src, Lck, Yes, Fyn)” value is recorded as “inhibits”.
